What was measured:
Assay in all cases: Kinase binding assay (kinase-tagged T7 phage, affinity beads, qPCR), Kd
FGFR1 = target: T1, FGFR1 (Homo sapiens, UniProt P11362); details: read-out: FGFR1 (Kd nM)
T1 construct: made in house; host or cells: E. coli (BL21-derived), T7 phage
Procedure, shortened: (§1)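 First, phage lysates carrying tagged kinase are made in E. coli at 32° C. Next, they are combined with blocked biotin-ligand streptavidin beads and compound at 0.9% final DMSO. Finally, eluted kinase is measured by qPCR and Kd is fitted with the Hill equation.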

FGFR3 = target: T2, FGFR3 (Homo sapiens, UniProt P22607); details: read-out: FGFR3 (Kd nM)
T2 construct: made in house; host or cells: E. coli (BL21-derived), T7 phage
Procedure, shortened: as §1

FGFR3 (V555M) = target: T3, FGFR3 (V555M) (Homo sapiens, UniProt P22607, V555M); details: V555M mutant; read-out: FGFR3 (V555M) (Kd nM)
T3 construct: made in house; host or cells: E. coli (BL21-derived), T7 phage
Procedure, shortened: as §1

FGFR2 = target: T4, FGFR2 (Homo sapiens, UniProt P21802); details: read-out: FGFR2 (Kd nM)
T4 construct: made in house; host or cells: E. coli (BL21-derived), T7 phage
Procedure, shortened: as §1

FGFR4 = target: T5, FGFR4 (Homo sapiens, UniProt P22455); details: read-out: FGFR4 (Kd nM)
T5 construct: made in house; host or cells: E. coli (BL21-derived), T7 phage
Procedure, shortened: as §1

T3 sequence (P22607 23-806 V555M): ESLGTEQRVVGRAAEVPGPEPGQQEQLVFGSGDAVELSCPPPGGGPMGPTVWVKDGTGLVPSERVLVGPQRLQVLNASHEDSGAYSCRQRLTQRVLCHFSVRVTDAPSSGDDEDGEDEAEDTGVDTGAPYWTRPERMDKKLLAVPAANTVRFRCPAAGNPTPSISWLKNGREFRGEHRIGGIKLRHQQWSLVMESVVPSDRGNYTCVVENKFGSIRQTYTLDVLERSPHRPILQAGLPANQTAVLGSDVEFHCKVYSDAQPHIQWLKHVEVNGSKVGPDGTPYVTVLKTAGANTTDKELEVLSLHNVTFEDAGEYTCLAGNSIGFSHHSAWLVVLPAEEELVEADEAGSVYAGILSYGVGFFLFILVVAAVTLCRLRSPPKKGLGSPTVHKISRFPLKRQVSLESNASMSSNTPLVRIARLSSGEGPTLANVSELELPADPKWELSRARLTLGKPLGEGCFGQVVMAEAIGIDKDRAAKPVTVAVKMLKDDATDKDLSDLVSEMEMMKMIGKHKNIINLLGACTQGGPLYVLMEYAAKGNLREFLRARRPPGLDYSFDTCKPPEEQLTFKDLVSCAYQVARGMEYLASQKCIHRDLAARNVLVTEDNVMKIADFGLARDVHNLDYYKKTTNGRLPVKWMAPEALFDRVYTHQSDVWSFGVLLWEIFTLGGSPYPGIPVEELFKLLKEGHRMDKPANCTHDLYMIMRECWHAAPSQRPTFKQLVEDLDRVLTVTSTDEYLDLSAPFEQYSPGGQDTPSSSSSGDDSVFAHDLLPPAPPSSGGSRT
T1 sequence (P11362 22-822): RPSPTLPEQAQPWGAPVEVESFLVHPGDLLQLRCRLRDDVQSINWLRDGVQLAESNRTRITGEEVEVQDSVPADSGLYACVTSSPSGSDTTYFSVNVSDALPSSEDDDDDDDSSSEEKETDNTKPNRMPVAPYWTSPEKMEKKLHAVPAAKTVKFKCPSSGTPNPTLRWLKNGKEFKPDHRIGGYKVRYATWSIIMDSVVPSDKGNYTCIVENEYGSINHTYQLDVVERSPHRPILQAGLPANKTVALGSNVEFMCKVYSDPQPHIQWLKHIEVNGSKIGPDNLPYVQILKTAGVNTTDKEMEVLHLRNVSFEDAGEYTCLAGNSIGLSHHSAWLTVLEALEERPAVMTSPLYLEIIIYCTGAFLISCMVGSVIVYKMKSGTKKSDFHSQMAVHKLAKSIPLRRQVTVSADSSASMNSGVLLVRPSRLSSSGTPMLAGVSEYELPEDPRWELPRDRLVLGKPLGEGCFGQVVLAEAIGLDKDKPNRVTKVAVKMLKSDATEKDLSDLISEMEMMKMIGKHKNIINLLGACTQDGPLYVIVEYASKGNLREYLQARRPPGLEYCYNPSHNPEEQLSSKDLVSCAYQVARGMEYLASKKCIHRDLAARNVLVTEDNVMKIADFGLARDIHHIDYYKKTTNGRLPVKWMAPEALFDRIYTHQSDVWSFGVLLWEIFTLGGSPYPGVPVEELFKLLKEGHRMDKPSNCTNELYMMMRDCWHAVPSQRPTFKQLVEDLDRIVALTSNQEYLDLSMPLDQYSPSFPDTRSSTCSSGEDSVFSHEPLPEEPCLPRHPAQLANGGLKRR
T2 sequence (P22607 23-806): as the sequence (P22607 23-806 V555M) above, with M533V counted along it
T5 sequence (P22455 22-802): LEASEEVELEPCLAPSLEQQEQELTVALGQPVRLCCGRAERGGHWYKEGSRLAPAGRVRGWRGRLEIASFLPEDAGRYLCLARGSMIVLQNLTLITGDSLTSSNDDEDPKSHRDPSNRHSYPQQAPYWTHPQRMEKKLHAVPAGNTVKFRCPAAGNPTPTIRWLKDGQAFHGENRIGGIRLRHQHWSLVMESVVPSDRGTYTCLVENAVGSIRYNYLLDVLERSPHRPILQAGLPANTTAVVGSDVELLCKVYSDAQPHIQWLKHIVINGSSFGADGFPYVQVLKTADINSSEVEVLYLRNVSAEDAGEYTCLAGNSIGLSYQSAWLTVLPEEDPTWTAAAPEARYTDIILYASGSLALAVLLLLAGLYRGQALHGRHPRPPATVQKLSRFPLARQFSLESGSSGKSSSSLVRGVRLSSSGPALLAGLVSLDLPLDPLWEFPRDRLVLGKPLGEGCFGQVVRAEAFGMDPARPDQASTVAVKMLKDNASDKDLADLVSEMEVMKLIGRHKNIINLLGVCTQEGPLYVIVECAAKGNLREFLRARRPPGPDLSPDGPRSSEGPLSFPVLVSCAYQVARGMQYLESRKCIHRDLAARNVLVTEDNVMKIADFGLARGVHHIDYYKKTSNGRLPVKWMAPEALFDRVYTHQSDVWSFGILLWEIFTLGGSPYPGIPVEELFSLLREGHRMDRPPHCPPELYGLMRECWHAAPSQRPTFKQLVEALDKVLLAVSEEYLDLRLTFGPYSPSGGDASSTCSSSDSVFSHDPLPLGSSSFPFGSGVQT
T4 sequence (P21802 22-821): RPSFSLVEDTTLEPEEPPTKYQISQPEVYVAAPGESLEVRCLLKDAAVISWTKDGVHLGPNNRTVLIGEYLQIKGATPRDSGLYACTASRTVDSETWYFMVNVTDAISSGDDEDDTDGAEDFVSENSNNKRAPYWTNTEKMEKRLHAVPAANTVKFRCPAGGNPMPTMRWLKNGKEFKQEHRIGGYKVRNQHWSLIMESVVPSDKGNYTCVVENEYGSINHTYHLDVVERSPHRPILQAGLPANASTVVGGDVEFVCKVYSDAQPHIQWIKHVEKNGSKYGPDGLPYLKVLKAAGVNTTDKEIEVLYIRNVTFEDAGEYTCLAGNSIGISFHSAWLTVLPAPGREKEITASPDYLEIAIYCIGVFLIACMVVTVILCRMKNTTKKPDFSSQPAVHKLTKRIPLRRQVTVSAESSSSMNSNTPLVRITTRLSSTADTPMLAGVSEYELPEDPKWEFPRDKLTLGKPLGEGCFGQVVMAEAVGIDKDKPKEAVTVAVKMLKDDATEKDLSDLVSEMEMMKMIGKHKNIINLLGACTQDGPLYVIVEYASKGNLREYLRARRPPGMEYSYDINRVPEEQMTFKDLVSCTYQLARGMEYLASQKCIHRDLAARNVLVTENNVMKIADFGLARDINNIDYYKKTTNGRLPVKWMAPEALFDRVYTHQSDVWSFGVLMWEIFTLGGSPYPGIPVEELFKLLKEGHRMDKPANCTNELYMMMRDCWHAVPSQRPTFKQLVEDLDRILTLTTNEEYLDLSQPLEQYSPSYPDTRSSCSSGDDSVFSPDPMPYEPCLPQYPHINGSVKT

Row | Kd (FGFR1) [nM] | Kd (FGFR3) [nM] | Kd (FGFR3 (V555M)) [nM] | Kd (FGFR2) [nM] | Kd (FGFR4) [nM] | Compound
1 | 300 to 1000 | 1 to 50 | 1 to 50 | 300 to 1000 | 300 to 1000 | CC(C)NCC1(C)CN(c2ccc(-c3n[nH]c4ccc(O[C@H](C)c5c(Cl)cncc5Cl)c(F)c34)cn2)C1 [Example 190, (R)-N-((1-(5-(5-(1-(3,5-dichloro-pyridin-4-yl)ethoxy)-4-fluoro-1H-indazol-3-yl)pyridin-2-yl)-3-methylazetidin-3-yl)methyl)propan-2-amine]
2 | 300 to 1000 | 50 to 300 | 1 to 50 | 300 to 1000 | 300 to 1000 | C[C@@H](Oc1ccc2[nH]nc(-c3ccc(N4CC(C)(CN5CCCC5)C4)nc3)c2c1F)c1c(Cl)cncc1Cl [Example 191, (R)-5-(1-(3,5-dichloropyridin-4-yl)ethoxy)-4-fluoro-3-(6-(3-methyl-3-(pyrrolidin-1-ylmethyl)azetidin-1-yl)pyridin-3-yl)-1H-indazole]
3 | 300 to 1000 | 50 to 300 | 1 to 50 | 300 to 1000 | 300 to 1000 | C[C@@H](Oc1ccc2[nH]nc(-c3ccc(N4CC(C)(NCCO)C4)nc3)c2c1F)c1c(Cl)cncc1Cl [Example 192, (R)-2-((1-(5-(5-(1-(3,5-dichloro-pyridin-4-yl)ethoxy)-4-fluoro-1H-inda-zol-3-yl)pyridin-2-yl)-3-methylazetidin-3-yl)amino)ethanol]
4 | 1 to 50 | 1 to 50 | 1 to 50 | 1 to 50 | 1 to 50 | C[C@@H](Oc1cc2c(-c3cnc(N4CC(C)(CP(C)(C)=O)C4)c(F)c3)n[nH]c2cc1F)c1c(Cl)cncc1Cl [Example 193, (R)-((1-(5-(5-(1-(3,5-dichloro-pyridin-4-yl)ethoxy)-6-fluoro-1H-indazol-3-yl)-3-fluoropyridin-2-yl)-3-methylazetidin-3-yl)methyl)dimethyl-phosphine oxide]
5 | 1 to 50 | 1 to 50 | 1 to 50 | 1 to 50 | 1 to 50 | COc1cc2[nH]nc(-c3cnc(N4CC(C)(CS(C)(=O)=O)C4)c(F)c3)c2cc1O[C@H](C)c1c(Cl)cncc1Cl [Example 194, (R)-5-(1-(3,5-dichloropyridin-4-yl)ethoxy)-3-(5-fluoro-6-(3-methyl-3-((methyl-sulfonyl)meth-yl)azetidin-1-yl)pyridin-3-yl)-6-methoxy-1H-indazole]
6 | 1 to 50 | 1 to 50 | 1 to 50 | 1 to 50 | 1 to 50 | C[C@@H](Oc1ccc2[nH]nc(-c3cnc(N4CC(C)(CS(C)(=O)=O)C4)nc3)c2c1)c1c(Cl)cncc1Cl [Example 195, (R)-5-(1-(3,5-dichloro-pyridin-4-yl)ethoxy)-3-(2-(3-methyl-3-((methylsulfonyl)-methyl)azetidin-1-yl)pyrimidin-5-yl)-1H-indazole]
7 | > 1000 | 300 to 1000 | 50 to 300 | > 1000 | 300 to 1000 | C[C@@H](Oc1ccc2[nH]nc(-c3cnc(N4CC(C)(CS(C)(=O)=O)C4)c(F)c3)c2c1F)c1c(Cl)cncc1Cl [Example 196, (R)-5-(1-(3,5-dichloropyridin-4-yl)ethoxy)-4-fluoro-3-(5-fluoro-6-(3-methyl-3-((methyl-sulfonyl)meth-yl)azetidin-1-yl)pyridin-3-yl)-1H-indazole]
8 | 300 to 1000 | 50 to 300 | 1 to 50 | > 1000 | 50 to 300 | CNC1(C)CN(c2ncc(-c3n[nH]c4ccc(O[C@H](C)c5c(Cl)cncc5Cl)c(F)c34)cc2F)C1 [Example 197, (R)-1-(5-(5-(1-(3,5-dichloropyridin-4-yl)ethoxy)-4-fluoro-1H-indazol-3-yl)-3-fluoropyridin-2-yl)-N,3-dimethylazetidin-3-amine]
9 | 300 to 1000 | 50 to 300 | 300 to 1000 | 300 to 1000 | 300 to 1000 | C[C@H](Oc1ccc2[nH]nc(-c3cnc(N4CC(C)(N(C)C)C4)c(F)c3)c2c1)c1c(Cl)cncc1Cl [Example 201, 1-[5-[5-[(1S)-1-(3,5-dichloro-4-pyridyl)ethoxy]-1H-indazol-3-yl]-3-fluoro-2-pyridyl]-N,N,3-trimethyl-azetidin-3-amine]

Reference: patent publication US20250368666A1, “INDAZOLE COMPOUNDS” (TYRA BIOSCIENCES, INC., priority 2022, published 2025)
